Patent publication US20250129086A1, “COMPOUND FOR DEGRADING EGFR PROTEIN AND USE THEREOF” (TYK MEDICINES, INC., priority 2021, published 2025)

Assays:
Type in all cases: cell-based, human
[1] = system: H1975 (EGFR L858R/T790M double mutation); assay: Cell antiproliferative assay (CTG, 72 h), H1975; conditions: Homo sapiens, NCI-H1975, 72 h, Table 2, H1975 cells
Method: (§1) Test Example 1 Cell Antiproliferative Assay
(§2) H1975: with EGFR: L858R/T790M double mutation; PC-9 with EGFR exon 19 deletion, HCC827 with exon 19 deletion mutation. CellCounting-Lite2.0, Trypsin EDTA, 37° C. CO2 incubator, cell counter, EnVision Serial No.1050454. II. Experimental preparation:
(§3) • (A) Trypsin EDTA was used to digest log-phase cells, medium was added to terminate the reaction, and a cell suspension was made by blowing and mixing with a pipette. • (B) Cell concentration was determined using Vi-cell, and a suspension of 15,000-25,000 cells per milliliter was made depending on the purpose of the experiment and the characteristics of the cells. • (C) After the cell suspension was prepared, it was gently mixed and 100 microliters per well was added so that the density of cells to be tested was 1500-2500 per well.
(§4) • (A) About 2 mg of compound was weighed, and the volume of DMSO required was calculated according to the formula: compound mass (mg)*compound purity (%)/compound molecular weight*1000 • (B) The inoculated cell culture plates were incubated in an incubator and the compounds with concentration gradient were added after about 24 hours. • (C)10 Mm of compound stock solution was diluted to […] with medium, and 50 Mm of compound solution was added sequentially to the second column of the deep-well plate, and […] of medium containing 0.5% DMSO was added to the third to eleventh columns. • (D) Gradient dilution: 125 μl of solution was pipetted from the second column and added to the third column, after mixing; another 125 μl of solution was pipetted from the third column and added to the fourth column, and the operation was repeated until the tenth column. • (E)25 μl of compound was pipetted from the deep-well plate into a 96-well culture plate using a multichannel pipette, and each compound was repeated three times on the 96-well plate. A maximum concentration of 10,000 nm with concentration gradient of 1:4 was eventually formed on the 96-well plate.
(§5) • (A)96-well plates were incubated in an incubator for 72 h. The effect of the compounds was observed under an inverted microscope. • (B)25 μl of CTG solution was added to each well, the plate was put on shaker for 10 minutes and the […] of each well was read.
(§6) The cell viability rate (% Cell Viability) was calculated using the following formula: • % Cell Viability=100%×(Lum_Sample-Lum_LC)/(Lum_HC-Lum_LC) • Lum_HC: Cell reading of 0.1% DMSO control • Lum_Sample: Cell reading with compound added • Lum_LC: Reading of Blank media • IC50 values were obtained by curve fitting with GraphPad Prism 8 software.

[2] = system: PC-9 (EGFR exon 19 deletion); assay: Cell antiproliferative assay (CTG, 72 h), PC-9; conditions: Homo sapiens, PC-9, 72 h, Table 2, PC-9 cells
Method: as §1, §2, §3, §4, §5, §6

[3] = system: HCC827 (exon 19 deletion mutation); assay: Cell antiproliferative assay (CTG, 72 h), HCC827; conditions: Table 2, HCC827 cells
Method: as §1, §2, §3, §4, §5, §6

Row | Compound | IC50 [1] | IC50 [2] | IC50 ([3]; Homo sapiens, HCC827, 72 h) | IC50 [3]
1 | COc1cc(N2CC3CN(C(=O)CN4CCC(c5ccc(NC6CCC(=O)NC6=O)cc5)CC4)CC3C2)ccc1Nc1ncc(Cl)c(Nc2ccccc2C(C)=O)n1 (stereo not drawn) [Compound T-188] | 10 to 100 nM | 100 to 1000 nM | 100 to 1000 nM | –
2 | COc1cc(N2CCN(C(=O)CN3CCC(c4ccc(NC5CCC(=O)NC5=O)cc4)CC3)CC2)ccc1Nc1ncc(Br)c(Nc2cccc3c2C(=O)NC3)n1 (stereo not drawn) [Compound T-272] | ≤ 10 nM | 10 to 100 nM | 10 to 100 nM | –
3 | COc1cc(N2CCN(C(=O)CN3CCC(c4ccc(NC5CCC(=O)NC5=O)cc4)CC3)CC2)c(C)cc1Nc1ncc(Br)c(Nc2ccccc2C(C)=O)n1 (stereo not drawn) [Compound T-59] | 10 to 100 nM | 100 to 1000 nM | 100 to 1000 nM | –
4 | COc1cc(N2CCN(C(=O)CN3CCC(c4ccc(NC5CCC(=O)NC5=O)cc4F)CC3)CC2)ccc1Nc1ncc(Cl)c(Nc2ccccc2)n1 (stereo not drawn) [Compound T-04] | 10 to 100 nM | 100 to 1000 nM | ≥ 1000 nM | –
5 | COc1cc(N2CCN(C(=O)CC3CCN(c4ccc5c(c4)C(=O)N(C4CCC(=O)NC4=O)C5=O)CC3)CC2)ccc1Nc1ncc(Cl)c(Nc2ccccc2C(C)=O)n1 (stereo not drawn) [Compound T-231] | 100 to 1000 nM | ≥ 1000 nM | 10 to 100 nM | –
6 | COc1cc(N2CCN(C(=O)CN3CCC(c4ccc(NC5CCC(=O)NC5=O)cc4)CC3)CC2)ccc1Nc1ncc(C(F)(F)F)c(Nc2ccc(F)cc2)n1 (stereo not drawn) [Compound T-51] | 10 to 100 nM | ≥ 1000 nM | – | ≥ 1000 nM
7 | O=C1CCC(Nc2ccc(C3CCN(CC(=O)N4CCN(c5ccc(-c6cc(F)c7c(c6)C(=O)N(C(C(=O)Nc6nccs6)c6ccccc6F)C7)cc5)CC4)CC3)cc2)C(=O)N1 (stereo not drawn) [Compound T-140] | 10 to 100 nM | 100 to 1000 nM | 100 to 1000 nM | –
8 | COc1cc(N2CCC(N(C)C(=O)CN3CCC(c4ccc(NC5CCC(=O)NC5=O)cc4)CC3)CC2)ccc1Nc1ncc(Cl)c(Nc2ccccc2C(C)=O)n1 (stereo not drawn) [Compound T-353] | 10 to 100 nM | 100 to 1000 nM | 100 to 1000 nM | –
9 | O=C1CCC(Nc2ccc(C3CCN(CC(=O)N4CCN(c5ccc(Nc6ncc(Cl)c(Nc7ccccc7)n6)c(Cl)c5)CC4)CC3)cc2)C(=O)N1 (stereo not drawn) [Compound T-328] | 100 to 1000 nM | 100 to 1000 nM | 100 to 1000 nM | –
10 | CNC(=O)c1ccccc1Nc1nc(Nc2ccc(N3CCN(C(=O)CN4CCC(c5ccc(NC6CCC(=O)NC6=O)cc5F)CC4)CC3)cc2OC)ncc1Br (stereo not drawn) [Compound T-295] | ≤ 10 nM | 10 to 100 nM | 10 to 100 nM | –
11 | COc1cc(N2CCN(C(=O)CN3CCC(c4ccc(NC5CCC(=O)NC5=O)cc4)CC3)CC2)ccc1Nc1ncc(Cl)c(Nc2ccccc2C(C)(C)O)n1 (stereo not drawn) [Compound T-196] | 10 to 100 nM | 100 to 1000 nM | 100 to 1000 nM | –
12 | COc1ccc(Nc2nc(Nc3ccc(N4CCN(C(=O)CN5CCC(c6ccc(NC7CCC(=O)NC7=O)cc6)CC5)CC4)cc3OC)ncc2Cl)c(C(C)=O)c1 (stereo not drawn) [Compound T-249] | ≤ 10 nM | 10 to 100 nM | 10 to 100 nM | –
13 | CNC(=O)c1ccccc1Nc1nc(Nc2cc(C)c(N3CCN(C(=O)CN4CCC(c5ccc(NC6CCC(=O)NC6=O)cc5)CC4)CC3C)cc2OC)ncc1Br (stereo not drawn) [Compound T-359] | 10 to 100 nM | 10 to 100 nM | 10 to 100 nM | –
14 | COc1cc(N2CCN(C(=O)CN3CCC(c4ccc(NC5CCC(=O)NC5=O)cc4)CC3)CC2)ccc1Nc1ncc(Br)c(Nc2ccccc2C(=O)NC2CCCC2)n1 (stereo not drawn) [Compound T-342] | 10 to 100 nM | 100 to 1000 nM | 10 to 100 nM | –
15 | COc1cc(OC2CCN(C(=O)CN3CCC(c4ccc(NC5CCC(=O)NC5=O)cc4)CC3)CC2)ccc1Nc1ncc(Cl)c(Nc2ccccc2C(C)=O)n1 (stereo not drawn) [Compound T-214] | 100 to 1000 nM | ≥ 1000 nM | 100 to 1000 nM | –
16 | COc1cc(N2CCN(C(=O)CN3CCC(c4ccc(NC5CCC(=O)NC5=O)cc4)CC3)CC2)c(C#N)cc1Nc1ncc(Cl)c(Nc2ccccc2C(C)=O)n1 (stereo not drawn) [Compound T-282] | 10 to 100 nM | 10 to 100 nM | 10 to 100 nM | –

Continued, values first:

Row | IC50 [1] | IC50 [2] | IC50 ([3]; Homo sapiens, HCC827, 72 h) | IC50 [3] | Compound
17 | 10 to 100 nM | 10 to 100 nM | 10 to 100 nM | – | COc1cc(N2CCN(C(=O)CN3CCC(c4ccc(NC5CCC(=O)NC5=O)cc4)CC3)CC2)c(C#N)cc1Nc1ncc(Br)c(Nc2ccccc2C(C)=O)n1 (stereo not drawn) [Compound T-286]
18 | 100 to 1000 nM | ≥ 1000 nM | 100 to 1000 nM | – | COc1cc(N2CCN(C(=O)CN3CCC(c4ccc(NC5CCC(=O)NC5=O)cc4)CC3)CC2)ccc1Nc1ncc(C(F)(F)F)c(-c2cn(C)c3ccccc23)n1 (stereo not drawn) [Compound T-135]
19 | ≤ 10 nM | 10 to 100 nM | 10 to 100 nM | – | CNC(=O)c1ccccc1Nc1nc(Nc2cc(C)c(N3CCN(C(=O)CN4CCC(c5ccc(NC6CCC(=O)NC6=O)cc5)CC4)CC3)cc2OC)ncc1Br (stereo not drawn) [Compound T-255]
20 | 100 to 1000 nM | ≥ 1000 nM | ≥ 1000 nM | – | CC(=O)c1ccccc1Nc1nc(Nc2ccc(N3CCN(C(=O)CN4CCC(c5ccc(NC6CCC(=O)NC6=O)cc5)CC4)CC3)cc2OC(C)C)ncc1Cl (stereo not drawn) [Compound T-179]
21 | 100 to 1000 nM | 100 to 1000 nM | 100 to 1000 nM | – | COc1cc(N2CCN(C(=O)CN3CCC(c4ccc(Cn5ccc(=O)[nH]c5=O)cc4)CC3)CC2)ccc1Nc1ncc(Cl)c(Nc2ccccc2C(C)=O)n1 [Compound T-332]
22 | 10 to 100 nM | ≥ 1000 nM | 100 to 1000 nM | – | COc1cc(N2CCN(C(=O)CN3CCC(c4ccc(NC5CCC(=O)NC5=O)cc4)CC3)CC2)ccc1Nc1ncc(Cl)c(Nc2ccccc2C(=O)NC2CCCC2)n1 (stereo not drawn) [Compound T-341]
23 | 100 to 1000 nM | ≥ 1000 nM | ≥ 1000 nM | – | C=CC(=O)Nc1cc(Nc2ncc(C(F)(F)F)c(Nc3ccccc3)n2)c(OC)cc1N(C)CCN(C)C(=O)CN1CCC(c2ccc(NC3CCC(=O)NC3=O)cc2)CC1 (stereo not drawn) [Compound T-180]
24 | 100 to 1000 nM | ≥ 1000 nM | 100 to 1000 nM | – | COc1cc(N2CC[C@@H](NC(=O)CN3CCC(c4ccc(NC5CCC(=O)NC5=O)cc4)CC3)C2)ccc1Nc1ncc(Cl)c(Nc2ccccc2C(C)=O)n1 (stereo partly drawn) [Compound T-173]
25 | 10 to 100 nM | ≥ 1000 nM | 100 to 1000 nM | – | COc1cc(N2CCN(C(=O)CN3CCC(c4ccc(NC5CCC(=O)NC5=O)cc4)CC3)CC2)ccc1Nc1ncc(C(F)(F)F)c(Nc2ccccc2P(C)(C)=O)n1 (stereo not drawn) [Compound T-46]
26 | 10 to 100 nM | 10 to 100 nM | 10 to 100 nM | – | CNC(=O)c1ccccc1Nc1nc(Nc2cc(C)c(N3CCN(C(=O)CN4CCC(c5ccc(NC6CCC(=O)NC6=O)cc5)CC4)C(C)C3)cc2OC)ncc1Br (stereo not drawn) [Compound T-356]
27 | 10 to 100 nM | ≥ 1000 nM | ≥ 1000 nM | – | COc1cc(N2CCN(C(=O)CN3CCC(c4ccc5c(N6CCC(=O)NC6=O)nn(C)c5c4)CC3)CC2)ccc1Nc1ncc(Cl)c(Nc2ccccc2)n1 [Compound T-14]
28 | 100 to 1000 nM | 100 to 1000 nM | ≥ 1000 nM | – | COc1cc(N2CCN(C(=O)CN3CCC(c4cccc(NC5CCC(=O)NC5=O)c4)CC3)CC2)ccc1Nc1ncc(Cl)c(Nc2ccccc2C(C)=O)n1 (stereo not drawn) [Compound T-181]
29 | 10 to 100 nM | 100 to 1000 nM | 100 to 1000 nM | – | COc1cc(N2CCN(C(=O)CN3CCC(c4ccc(NC5CCC(=O)NC5=O)cc4)CC3)CC2)ccc1Nc1ncc(Cl)c(Nc2ccccc2C(=O)NC(C)C)n1 (stereo not drawn) [Compound T-259]
30 | 100 to 1000 nM | ≥ 1000 nM | 100 to 1000 nM | – | COc1cc(N2CCN(CCC3CCN(c4ccc5c(c4)C(=O)N(C4CCC(=O)NC4=O)C5=O)CC3)CC2)ccc1Nc1ncc(Cl)c(Nc2ccccc2C(C)=O)n1 (stereo not drawn) [Compound T-212]
31 | 10 to 100 nM | 100 to 1000 nM | 100 to 1000 nM | – | COc1cc(N2CCN(C(=O)CN3CCC(c4ccc(NC5CCC(=O)NC5=O)cc4)CC3)CC2)c(C)cc1Nc1ncc(C(F)(F)F)c(Nc2ccccc2C(C)=O)n1 (stereo not drawn) [Compound T-58]
32 | 100 to 1000 nM | ≥ 1000 nM | ≥ 1000 nM | – | COc1cc(N2CCC[C@H](N(C)CN3CCC(c4ccc(NC5CCC(=O)NC5=O)cc4)CC3)C2)ccc1Nc1ncc(Cl)c(Nc2ccccc2C(C)=O)n1 (stereo partly drawn) [Compound T-167]
33 | 100 to 1000 nM | 100 to 1000 nM | 100 to 1000 nM | – | COc1cc(N2CCN(C(=O)CN3CCC(c4ccc(CN5CCC(=O)NC5=O)cc4)CC3)CC2)ccc1Nc1ncc(Cl)c(Nc2ccccc2C(C)=O)n1 [Compound T-337]
